{"source": "patent US11839651B2", "about": "“Immunogenic compositions and uses thereof” (INSTITUTE FOR RESEARCH IN BIO-MEDICINE, priority 2015, dated 2023)", "tested_on": "Tfh cells (via P2X7)", "assay": "Epithelial permeability to ATP: Tfh cell recovery in Peyer's patches after daily gavage", "type": "in vivo", "conditions": "wild type mice, two weeks after treatment", "text": "In order to assess epithelial permeability to ATP in the small intestine, mice were gavaged daily with ATPγS (a non-hydrolysable analogue of ATP). As Tfh cells are sensitive to extracellular ATP via P2X7 the inventors analysed Tfh cell recovery in Peyer's patches two weeks after treatment.", "data": [{"compound": "Nc1ncnc2c1ncn2[C@@H]1O[C@H](COP(=O)(O)OP(=O)(O)OP(O)(O)=S)[C@@H](O)[C@H]1O", "note": "[ATPγS]", "values": [{"measurement": "Tfh cells in Peyer's patches", "result": "significant reduction"}]}]}
